Test results: the NIST ThermoML archive (doi:10.1007/s10765-005-8101-x)
± gives the expanded uncertainty stated by the source.

How the values were obtained:
[1] = 298.15 K; 101.33 kPa; Liquid
[2] = xn = mol fraction of the nth substance listed; settings: 298.15 K, 101 kPa, Liquid

CCCCO [butan-1-ol]
mass density [1]: 806.14 ± 0.59 kg/m3 | speed of sound [1]: 1240.8 ± 2.9 m/s

CCCCO [butan-1-ol] + CC(C)O
mass density ([2]; x2 = 0.0596): 804.62 ± 0.95 kg/m3 | speed of sound ([2]; x2 = 0.0596): 1235.6 ± 5.5 m/s | mass density ([2]; x2 = 0.1039): 803.68 ± 0.95 kg/m3 | speed of sound ([2]; x2 = 0.1039): 1231.8 ± 5.5 m/s | mass density ([2]; x2 = 0.2093): 801.62 ± 0.96 kg/m3 | speed of sound ([2]; x2 = 0.2093): 1223.2 ± 5.4 m/s | mass density ([2]; x2 = 0.3024): 799.57 ± 0.96 kg/m3 | speed of sound ([2]; x2 = 0.3024): 1214.8 ± 5.4 m/s | mass density ([2]; x2 = 0.3977): 797.49 ± 0.97 kg/m3 | speed of sound ([2]; x2 = 0.3977): 1206.1 ± 5.4 m/s | mass density ([2]; x2 = 0.5033): 794.92 ± 0.98 kg/m3 | speed of sound ([2]; x2 = 0.5033): 1195.9 ± 5.4 m/s | mass density ([2]; x2 = 0.599): 792.68 ± 0.98 kg/m3 | speed of sound ([2]; x2 = 0.599): 1186.5 ± 5.3 m/s | mass density ([2]; x2 = 0.6946): 790.21 ± 0.99 kg/m3 | speed of sound ([2]; x2 = 0.6946): 1176.4 ± 5.3 m/s | mass density ([2]; x2 = 0.8062): 787.19 ± 1 kg/m3 | speed of sound ([2]; x2 = 0.8062): 1164.1 ± 5.3 m/s | mass density ([2]; x2 = 0.8938): 784.58 ± 1 kg/m3 | speed of sound ([2]; x2 = 0.8938): 1153.6 ± 5.2 m/s

CCCCCCO [hexan-1-ol]
mass density [1]: 815.15 ± 1.2 kg/m3 | speed of sound [1]: 1303.6 ± 5.9 m/s

CCCCCCO [hexan-1-ol] + CC(C)O
mass density ([2]; x2 = 0.039): 814.4 ± 1.2 kg/m3 | speed of sound ([2]; x2 = 0.039): 1299.6 ± 5.9 m/s | mass density ([2]; x2 = 0.1037): 813 ± 1.1 kg/m3 | speed of sound ([2]; x2 = 0.1037): 1292.9 ± 5.9 m/s | mass density ([2]; x2 = 0.2075): 810.57 ± 1.1 kg/m3 | speed of sound ([2]; x2 = 0.2075): 1281.1 ± 5.8 m/s | mass density ([2]; x2 = 0.3051): 808.2 ± 1.1 kg/m3 | speed of sound ([2]; x2 = 0.3051): 1269.2 ± 5.7 m/s | mass density ([2]; x2 = 0.4032): 805.42 ± 1.1 kg/m3 | speed of sound ([2]; x2 = 0.4032): 1255.9 ± 5.7 m/s | mass density ([2]; x2 = 0.5067): 802.47 ± 1.1 kg/m3 | speed of sound ([2]; x2 = 0.5067): 1241.4 ± 5.6 m/s | mass density ([2]; x2 = 0.6044): 799.08 ± 1 kg/m3 | speed of sound ([2]; x2 = 0.6044): 1225 ± 5.5 m/s | mass density ([2]; x2 = 0.7047): 795.43 ± 1 kg/m3 | speed of sound ([2]; x2 = 0.7047): 1207.3 ± 5.4 m/s | mass density ([2]; x2 = 0.8059): 791.12 ± 1 kg/m3 | speed of sound ([2]; x2 = 0.8059): 1186.8 ± 5.4 m/s | mass density ([2]; x2 = 0.9081): 786.44 ± 1 kg/m3 | speed of sound ([2]; x2 = 0.9081): 1164.3 ± 5.3 m/s

CCCCCCCCO [octan-1-ol]
mass density [1]: 821.72 ± 2.1 kg/m3 | speed of sound [1]: 1347.9 ± 6.5 m/s

CCCCCCCCO [octan-1-ol] + CC(C)O
mass density ([2]; x2 = 0.0862): 819.96 ± 1.4 kg/m3 | speed of sound ([2]; x2 = 0.0862): 1338.7 ± 6.4 m/s | mass density ([2]; x2 = 0.2078): 817.18 ± 1.4 kg/m3 | speed of sound ([2]; x2 = 0.2078): 1324.2 ± 6.2 m/s | mass density ([2]; x2 = 0.2977): 814.58 ± 1.3 kg/m3 | speed of sound ([2]; x2 = 0.2977): 1311.6 ± 6.1 m/s | mass density ([2]; x2 = 0.4059): 811.74 ± 1.2 kg/m3 | speed of sound ([2]; x2 = 0.4059): 1296 ± 6 m/s | mass density ([2]; x2 = 0.5012): 808.6 ± 1.2 kg/m3 | speed of sound ([2]; x2 = 0.5012): 1279.4 ± 5.9 m/s | mass density ([2]; x2 = 0.5991): 804.77 ± 1.1 kg/m3 | speed of sound ([2]; x2 = 0.5991): 1259.8 ± 5.7 m/s | mass density ([2]; x2 = 0.6994): 800.52 ± 1.1 kg/m3 | speed of sound ([2]; x2 = 0.6994): 1237.7 ± 5.6 m/s | mass density ([2]; x2 = 0.7985): 795.28 ± 1.1 kg/m3 | speed of sound ([2]; x2 = 0.7985): 1211.1 ± 5.5 m/s | mass density ([2]; x2 = 0.8993): 789.09 ± 1 kg/m3 | speed of sound ([2]; x2 = 0.8993): 1179.3 ± 5.3 m/s | mass density ([2]; x2 = 0.9453): 785.8 ± 1 kg/m3 | speed of sound ([2]; x2 = 0.9453): 1162.8 ± 5.3 m/s

CCCO [propan-1-ol]
mass density [1]: 800.62 ± 0.6 kg/m3 | speed of sound [1]: 1208.1 ± 2.8 m/s

CC(C)O [propan-2-ol]
mass density [1]: 781.91 ± 0.62 kg/m3 | speed of sound [1]: 1141.3 ± 2.7 m/s

CC(C)O [propan-2-ol] + CCCO
mass density ([2]; x1 = 0.1051): 798.37 ± 0.97 kg/m3 | speed of sound ([2]; x1 = 0.1051): 1201 ± 5.4 m/s | mass density ([2]; x1 = 0.195): 796.76 ± 0.97 kg/m3 | speed of sound ([2]; x1 = 0.195): 1195.4 ± 5.3 m/s | mass density ([2]; x1 = 0.3049): 794.67 ± 0.98 kg/m3 | speed of sound ([2]; x1 = 0.3049): 1187.9 ± 5.3 m/s | mass density ([2]; x1 = 0.4062): 792.8 ± 0.98 kg/m3 | speed of sound ([2]; x1 = 0.4062): 1181.3 ± 5.3 m/s | mass density ([2]; x1 = 0.4941): 791.17 ± 0.99 kg/m3 | speed of sound ([2]; x1 = 0.4941): 1175.4 ± 5.3 m/s | mass density ([2]; x1 = 0.6029): 789.12 ± 0.99 kg/m3 | speed of sound ([2]; x1 = 0.6029): 1168 ± 5.3 m/s | mass density ([2]; x1 = 0.7067): 787.16 ± 1 kg/m3 | speed of sound ([2]; x1 = 0.7067): 1161 ± 5.2 m/s | mass density ([2]; x1 = 0.8063): 785.31 ± 1 kg/m3 | speed of sound ([2]; x1 = 0.8063): 1154.2 ± 5.2 m/s | mass density ([2]; x1 = 0.91): 783.37 ± 1 kg/m3 | speed of sound ([2]; x1 = 0.91): 1147.5 ± 5.2 m/s | mass density ([2]; x1 = 0.9515): 782.54 ± 1 kg/m3 | speed of sound ([2]; x1 = 0.9515): 1144.5 ± 5.2 m/s
